The numbers were not newly measured in patent US20080112910A1, “Cool feeling composition, cool feeling auxiliary composition, and use thereof” (priority 2002, published 2008), which cites them from elsewhere.

For the data set the following is noted: as compared with menthol.

Each structure is given as a SMILES string.

On to `COC(=O)c1ccccc1O` [methyl salicylate], for which the “stimulation of cool feeling” value was “very weak” and the “stimulation of hot feeling” value is recorded as “strong”.
